In patent US5750550A, “2-(pyrazol-5-yl-oxymethyl)-1,2-benzisothiazol-3 (2H)-One 1, 1-dioxides and compositions and method of use thereof” (Sanofi, priority 1995, dated 1998):

Each compound was assayed against T1, human leukocyte elastase (Homo sapiens, UniProt P08246) (assay: human leukocyte elastase (HLE) inhibitory activity, substrate MeOSuc-Ala-Ala-Pro-Val-pNA). Details: pH 7.8, 25° C., steady-state velocities.
T1 sequence (P08246 30-267): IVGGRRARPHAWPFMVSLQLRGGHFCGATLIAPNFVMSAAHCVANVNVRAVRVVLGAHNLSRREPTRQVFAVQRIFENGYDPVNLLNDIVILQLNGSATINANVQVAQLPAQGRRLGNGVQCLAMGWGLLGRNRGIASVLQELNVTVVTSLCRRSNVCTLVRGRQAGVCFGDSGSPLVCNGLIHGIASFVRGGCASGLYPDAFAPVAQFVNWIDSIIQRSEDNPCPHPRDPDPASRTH
Format: biochemical
Protocol: The test compound (inhibitor) is dissolved in DMSO in a vial to produce an inhibitor stock solution which has a concentration in the range of 200-1000 μM. The inhibitor stock solution is diluted (1:4, 1:16 and 1:64) into assay vials (vials 1, 2 and 3 respectively) containing 2.4 mL of buffer solution (50 mM N-[2-hydroxyethyl] piperazine-N'-[2-ethanesulfonic acid]/NaOH, 500 mM NaCl, pH 7.8 at 25° C.) and DMSO is added so that the total volume in each vial is 3.2 mL. 70 μL, 50 μL, 35 μL and 25 μL of inhibitor from assay vial 1 is placed into the first four wells of a 96-well microtiter plate and each well is made up to 90 μL total volume with the addition of a 25% DMSO/buffer solution. The inhibitor from assay vials 2 and 3 is processed in a similar manner and placed in wells 5-12 respectively to afford a total of 12 different inhibitor concentrations. Four wells (wells 13-16) containing 90 μL of the 25% DMSO/buffer solution but no inhibitor are also run simultaneously with the inhibited wells as a control. 150 μL of substrate solution (prepared by the addition of 500 μL of the human leukocyte elastase (HLE) substrate MeOSuc-Ala-Ala-Pro-Val-pNA (18.7 mM in DMSO) to 19.5 mL of buffer solution) is then added simultaneously into each of the 16 wells and the solution in each well was thoroughly mixed.
The 96-well microtiter plate is placed into a Microplate Reader #89815A spectrophotometer and 110 μL of the enzyme solution (prepared as follows: a mixture of 20 mL of buffer solution and 20 mg of bovine serum albumen is gently vortexed in a scintillation vial and 5 μL HLE stock solution (1 mg/mL dissolved in deionized water) is added) is added simultaneously to each of the 16 wells. Each of the solutions in the wells is throughly mixed and then the time-dependent absorbance data is collected at an absorbance of 410 nm until the assay is complete. It should be noted that although this assay method can be done manually, it is preferred to perform the assay robotically using a Hewlett Packard MicroAssay System Robot. the absorbance versus time data thus obtained affords curves the final slope of which is equal to the final steady-statevelocities (VF). Using the program ENZFITTER (Elsevier software), the progress curves for the four control assays ([I]=0 are fit by linear regression to yield the enzyme reaction velocity values in the absences of inhibitor (Vo) which are averaged to produce a single fixed value. The inhibition constant Ki (nM) is then obtained from a plot of [formula] which affords a linear plot wherein: [formula] and [S] is the concentration of the substrate and Km is the Michaelis constant.
Table I summarizes the results obtained from the testing of compounds of the invention for human leukocyte elastase inhibitory activity.

**Q.** For COc1cc(C(C)C)c2c(c1)S(=O)(=O)N(COc1cc(-c3ccccc3)nn1C)C2=O [2 (b), 4-isopropyl-6-methoxy-2-(1-methyl-3-phenylpyrazol-5-yl-oxymethyl)-1,2-benzisothiazol-3(2H)-one 1,1-dioxide], which Ki is on record?
**A.** The Ki was 0.47 nM.

**Q.** With COc1cc(C(C)C)c2c(c1)S(=O)(=O)N(COc1cc(C)nn1-c1ccccc1)C2=O [4 (b), 4-isopropyl-6-methoxy-2-(1-phenyl-3-methylpyrazol-5-yl-oxymethyl)-1,2-benzisothiazol-3(2H)-one 1,1-dioxide] as the compound, how does the Ki read?
**A.** Its Ki is 0.44 nM.

**Q.** With COc1cc(C(C)C)c2c(c1)S(=O)(=O)N(COc1cc(-c3ccccc3)nn1-c1ccccc1)C2=O [5 (b), 4-isopropyl-6-methoxy-2-(1,3-diphenylpyrazol-5-yl-oxymethyl)-1,2-benzisothiazol-3(2H)-one 1,1-dioxide] as the compound, how does the Ki read?
**A.** Its Ki is 0.92 nM.

**Q.** Which Ki does the source give for COc1cc(C(C)C)c2c(c1)S(=O)(=O)N(COc1ccnn1-c1ccccc1)C2=O [6 (c), 4-isopropyl-6-methoxy-2-(1-phenylpyrazol-5-yl-oxymethyl)-1,2-benzisothiazol-3(2H)-one 1,1-dioxide] here?
**A.** Its Ki is 0.145 nM.

**Q.** How did the Ki turn out when COc1cc(C(C)C)c2c(c1)S(=O)(=O)N(COc1cc(C(F)(F)F)nn1-c1ccc(Cl)cc1)C2=O [8 (b), 4-isopropyl-6-methoxy-2-[1-(4-chlorophenyl)-3-trifluoromethylpyrazol-5-yl-oxymethyl]-1,2-benzisothiazol-3(2H)-one 1,1-dioxide] was run?
**A.** The Ki was 0.11 nM.

**Q.** COc1cc(C(C)C)c2c(c1)S(=O)(=O)N(COc1cc(C(F)(F)F)nn1-c1ccccn1)C2=O [10 (b), 4-isopropyl-6-methoxy-2-[1-(2-pyridyl)-3-trifluoromethylpyrazol-5-yl-oxymethyl]-1,2-benzisothiazol-3(2H)-one 1,1-dioxide] was tested. Which Ki did it give?
**A.** The Ki was 0.024 nM.

**Q.** With COc1cc(C(C)C)c2c(c1)S(=O)(=O)N(COc1cc(C(F)(F)F)nn1-c1ccc([N+](=O)[O-])cc1)C2=O [11 (c), 4-isopropyl-6-methoxy-2-[1-(4-nitrophenyl)-3-trifluoromethylpyrazol-5-yl-oxymethyl)-1,2-benzisothiazol-3(2H)-one 1,1-dioxide] as the compound, how does the Ki read?
**A.** The Ki was 0.089 nM.

**Q.** With COc1cc(C(C)C)c2c(c1)S(=O)(=O)N(COc1cc(-c3ccncc3)nn1-c1ccc(Cl)cc1)C2=O [14 (c), 4-isopropyl-6-methoxy-2-[1-(4-chlorophenyl)-3-(4-pyridyl)pyrazol-5-yl-oxymethyl]-1,2-benzisothiazol-3(2H)-one 1,1-dioxide] as the compound, how does the Ki read?
**A.** The Ki was 0.19 nM.

**Q.** How did the Ki turn out when COc1ccc(-n2nc(C(F)(F)F)cc2OCN2C(=O)c3c(C(C)C)cc(OC)cc3S2(=O)=O)cc1 [15 (b), 4-isopropyl-6-methoxy-2-[1-(4-methoxyphenyl)-3-trifluoromethylpyrazol-5-yl-oxymethyl)-1,2-benzisothiazol-3(2H)-one 1,1-dioxide] was run?
**A.** The Ki was 0.13 nM.

**Q.** With COc1cc(C(C)C)c2c(c1)S(=O)(=O)N(COc1c(Cl)c(C(F)(F)F)nn1-c1ccccc1)C2=O [16 (b), 4-isopropyl-6-methoxy-2-(1-phenyl-3-trifluoromethyl-4-chloropyrazol-5-yl-oxymethyl)-1,2-benzisothiazol-3(2H)-one 1,1-dioxide] as the compound, how does the Ki read?
**A.** The Ki was 1.6 nM.

**Q.** With CC(C)c1cc(OCCCC(=O)O)cc2c1C(=O)N(COc1cc(C(F)(F)F)nn1-c1ccccc1)S2(=O)=O [17 (b), 4-isopropyl-6-[3-(carboxy)propoxy]-2-(1-phenyl-3-trifluoromethylpyrazol-5-yl-oxymethyl)-1,2-benzisothiazol-3(2H)-one 1,1-dioxide] as the compound, how does the Ki read?
**A.** Its Ki is 0.036 nM.

**Q.** With CC(C)c1cc(OCC(C)(C)C(=O)O)cc2c1C(=O)N(COc1cc(C(F)(F)F)nn1-c1ccccc1)S2(=O)=O [18 (b), 4-isopropyl-6-[2-(carboxy-2-methyl)propoxy]-2-(1-phenyl-3-trifluoromethylpyrazol-5-yl-oxymethyl)-1,2-benzisothiazol-3(2H)-one 1,1-dioxide] as the compound, how does the Ki read?
**A.** The Ki was 0.22 nM.

**Q.** COc1cc(C(C)C)c2c(c1)S(=O)(=O)N(COc1cc(-c3c(F)c(F)c(F)c(F)c3F)nn1-c1ccccc1)C2=O [19 (c)] was tested. Which Ki did it give?
**A.** The Ki was 0.82 nM.

**Q.** Which Ki does the source give for COc1cc(C(C)C)c2c(c1)S(=O)(=O)N(COc1cc(C(F)(F)F)nn1-c1cccnc1)C2=O [20 (c), 4-isopropyl-6-methoxy-2-[1-(3-lpyridyl)-3-(trifluoromethyl)pyrazol-5-yl-oxymethyl]-1,2-benzisothiazol-3(2H)-one 1,1-dioxide] here?
**A.** The Ki was 0.037 nM.

**Q.** For COc1cc(C(C)C)c2c(c1)S(=O)(=O)N(COc1cc(C(F)(F)F)nn1-c1ccncc1)C2=O [22 (b), 4-isopropyl-6-methoxy-2-[1-(4-pyridyl)-3-trifluoromethylpyrazol-5-yl-oxymethyl]-1,2-benzisothiazol-3(2H)-one 1,1-dioxide], which Ki is on record?
**A.** The Ki was 0.18 nM.

**Q.** How did the Ki turn out when COc1cc(C(C)C)c2c(c1)S(=O)(=O)N(COc1cc(C(=O)NCCN3CCCC3)nn1-c1ccccc1)C2=O [23 (b), 4-isopropyl-6-methoxy-2-[1-phenyl-3-(C(O)NH(CH2)2-1-pyrrolidinyl)pyrazol-5-yl-oxymethyl]-1,2-benzisothiazol-3(2H)-one 1,1-dioxide] was run?
**A.** Its Ki is 0.065 nM.

**Q.** How did the Ki turn out when COc1cc(C(C)C)c2c(c1)S(=O)(=O)N(COc1cc(Cl)nn1-c1ccccc1)C2=O [24 (c), 4-isopropyl-6-methoxy-2-(1-phenyl-3-chloropyrazol-5-yl-oxymethyl)-1,2-benzisothiazol-3(2H)-one 1,1-dioxide] was run?
**A.** Its Ki is 0.026 nM.

**Q.** For COc1cc(C(C)C)c2c(c1)S(=O)(=O)N(COc1cc(C(F)(F)F)nn1-c1ccc3ccccc3n1)C2=O [27 (b), 4-isopropyl-6-methoxy-2-[1-(2-quinolinyl)-3-(trifluoromethyl)pyrazol-5-yl-oxymethyl]-1,2-benzisothiazol-3(2H)-one 1,1-dioxide], which Ki is on record?
**A.** The Ki was 0.15 nM.

**Q.** How did the Ki turn out when COc1cc(C(C)C)c2c(c1)S(=O)(=O)N(COc1cc(C(F)(F)F)nn1-c1ccc(Cl)cn1)C2=O [28 (c), 4-isopropyl-6-methoxy-2-[1-(5-chloro-2-pyridyl)-3-(trifluoromethyl)pyrazol-5-yl-oxymethyl]-1,2-benzisothiazol-3(2H)-one 1,1-dioxide] was run?
**A.** The Ki was 0.089 nM.

**Q.** How did the Ki turn out when CCN(CC)Cc1ccc(COc2cc(C(C)C)c3c(c2)S(=O)(=O)N(COc2cc(C(F)(F)F)nn2-c2ccccc2)C3=O)o1 [29 (b)] was run?
**A.** Its Ki is 0.082 nM.

**Q.** With COc1cc(C(C)C)c2c(c1)S(=O)(=O)N(COc1cc(C(F)(F)F)nn1-c1ccccc1Cl)C2=O [30 (b), 4-isopropyl-6-methoxy-2-[1-(2-chlorophenyl)-3-trifluoromethylpyrazol-5-yl-oxymethyl]-1,2-benzisothiazol-3(2H)-one 1,1-dioxide] as the compound, how does the Ki read?
**A.** The Ki was 0.07 nM.

**Q.** CCN(CC)CCN(C)C(=O)c1cc(OCN2C(=O)c3c(C(C)C)cc(OC)cc3S2(=O)=O)n(-c2ccccc2)n1 [31 (b)] was tested. Which Ki did it give?
**A.** The Ki was 0.143 nM.

**Q.** COc1cc(C(C)C)c2c(c1)S(=O)(=O)N(COc1cc(C(F)(F)F)nn1-c1ccc(Cl)nn1)C2=O [32 (c), 4-isopropyl-6-methoxy-2-[1-(3-chloropyridazin-6-yl)-3-trifluoromethylpyrazol-5-yl-oxymethyl]-1,2-benzisothiazol-3(2H)-one 1,1-dioxide] was tested. Which Ki did it give?
**A.** Its Ki is 0.055 nM.

**Q.** COc1cc(C(C)C)c2c(c1)S(=O)(=O)N(COc1cc(C(=O)OC(C)(C)C)nn1-c1ccccc1)C2=O [33 (b), 4-isoorooyl-6-methoxy-2-[1-phenyl-3-(t-butoxycarbonyl)pyrazol-5-yl-oxymethyl]-1,2-benzisothiazol-23 (2H)-one 1,1-dioxide] was tested. Which Ki did it give?
**A.** Its Ki is 0.1 nM.

**Q.** COc1cc(C(C)C)c2c(c1)S(=O)(=O)N(COc1cc(C(F)(F)F)nn1-c1ncc(Cl)cc1C(F)(F)F)C2=O [34 (b), 4-isopropyyl-6-methoxy-2-[1-(5-chloro-3-trifluoromethyl-2-pyridyl)-3-trifluoromethylpyrazol-5-yl-oxymethyl]-1,2-benzisothiazol-3(2H)-one 1,1-dioxide] was tested. Which Ki did it give?
**A.** The Ki was 0.027 nM.

**Q.** With COc1cc(C(C)C)c2c(c1)S(=O)(=O)N(COc1cc(C(F)(F)F)nn1-c1cccc(C(F)(F)F)n1)C2=O [36 (b), 4-isopropyl-6-methoxy-2-[1-(6-trifluoromethyl-2-pyridyl)-3-trifluoromethylpyrazol-5-yl-oxymethyl]-1,2-benzisothiazol-3(2H)-one 1,1-dioxide] as the compound, how does the Ki read?
**A.** Its Ki is 0.029 nM.
